Patent publication US10894807B2 (Siemens Medical Solutions USA, Inc., priority 2011, dated 2021)
Where a SMILES comes first, the peptide text is derived from it. [ ]: non-standard residue; d: D form. The star is where a group is joined. Boc = CC(C)(C)OC(=O)*; Nlys = NCCCCNCC(=O)O

biological target: human PSMA (Homo sapiens (Human), UniProt Q04609); test: Enzymatic assay for in vitro evaluation of PSMA inhibitors (fluorescent assay of PSMA activity, NAAG substrate, OPA detection of glutamate); format: biochemical; details: not given
Sequence (Q04609 whole entry): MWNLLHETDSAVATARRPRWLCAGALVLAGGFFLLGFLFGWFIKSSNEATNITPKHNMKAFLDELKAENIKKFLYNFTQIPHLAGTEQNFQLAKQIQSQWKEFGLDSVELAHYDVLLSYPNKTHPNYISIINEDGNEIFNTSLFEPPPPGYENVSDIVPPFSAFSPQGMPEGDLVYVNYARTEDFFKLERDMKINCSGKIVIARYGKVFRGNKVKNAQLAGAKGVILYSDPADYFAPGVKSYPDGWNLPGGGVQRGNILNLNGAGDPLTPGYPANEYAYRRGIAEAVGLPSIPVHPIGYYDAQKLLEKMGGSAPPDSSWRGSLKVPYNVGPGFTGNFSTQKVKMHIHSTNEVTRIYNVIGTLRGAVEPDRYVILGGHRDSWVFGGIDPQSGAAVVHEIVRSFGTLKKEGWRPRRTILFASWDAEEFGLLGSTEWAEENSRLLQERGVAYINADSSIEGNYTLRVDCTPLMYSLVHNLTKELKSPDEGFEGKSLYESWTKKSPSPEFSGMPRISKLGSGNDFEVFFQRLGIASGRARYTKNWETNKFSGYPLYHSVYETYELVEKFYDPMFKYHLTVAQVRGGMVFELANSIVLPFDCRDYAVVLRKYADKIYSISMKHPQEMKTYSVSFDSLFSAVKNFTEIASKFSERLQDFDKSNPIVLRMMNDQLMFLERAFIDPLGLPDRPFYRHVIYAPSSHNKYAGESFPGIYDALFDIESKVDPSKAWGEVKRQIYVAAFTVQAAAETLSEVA
Description: Enzymatic Assay for In Vitro Evaluation of PSMA Inhibitors
The inhibitory activity of all compounds was determined using a fluorescent assay of human PSMA activity. The enzyme used in the assay was purchased from R&D Systems and stored at −80° C. The PSMA activity was assayed in a two-step process. In the first step, aliquots of enzyme (0.2 μg/mL) were incubated for 1 h at 37° C. in 50 mM HEPES, 0.1 M NaCl, pH 7.5, in the presence of 20 μM NAAG and the given inhibitor, in a volume of 250 μL, to allow for the accumulation of glutamate produced in the PSMA reaction. In the second step, the amount of accumulated glutamate was measured using the OPA reaction, and the fluorescence was read with a SpectraMax fluorescent plate reader using excitation at 330 nm and emission at 450 nm. The final Ki values for each inhibitor were calculated from the respective IC50 values using the Cheng and Prusoff equation.

Row | SMILES | Ki
1 | CN(C(=O)N[C@@H](CCC(=O)O)C(=O)O)[C@@H](CCCCNC(=O)OCc1ccccc1)C(=O)O [P018, (9S,13S)-10-Methyl-3,11-dioxo-1-phenyl-2-oxa-4,10,12-triazapentadecane-9,13,15-tricarboxylic Acid] | 15.6 nM
2 | CN(C(=O)N[C@@H](CCCCNC(=O)OCc1ccccc1)C(=O)O)[C@@H](CCC(=O)O)C(=O)O [P019, (9S,13S)-12-Methyl-3,11-dioxo-1-phenyl-2-oxa-4,10,12-triazapentadecane-9,13,15-tricarboxylic Acid] | 37.5 nM
3 | O=C(O)CC[C@H](NC(=O)N[C@@H](CCCCNC(=O)OCc1ccccc1)C(=O)O)C(=O)O [P033, (9S,13S)-3,11-Dioxo-1-phenyl-2-oxa-4,10,12-triazapentadecane-9,13,15-tricarboxylic Acid] | 0.78 nM
4 | O=C(O)CC[C@H](NC(=O)N[C@@H](CCCCNC(=O)CCCn1cc(CCCF)nn1)C(=O)O)C(=O)O [P045, (S)-2-(3-((S)-1-Carboxy-5-(4-(4-(3-fluoropropyl)-1H-1,2,3-triazol-1-yl)-butanamido)pentyl)ureido)pentanedioic Acid] | 10.9 nM
5 | CN(C(=O)N[C@@H](CCC(=O)O)C(=O)O)[C@@H](CCCCNC(=O)CCCn1cc(CCCF)nn1)C(=O)O [P046, (S)-2-(3-((S)-1-Carboxy-5-(4-(4-(3-fluoropropyl)-1H-1,2,3-triazol-1-yl)-butanamido)pentyl)-3-methylureido)pentanedioic Acid] | 328 nM

same assay, conditions: compound at 10 μM

Row | SMILES | PSMA Blkg % (10 μM)
6 | O=C(O)CC[C@H](NC(=O)C[C@H](NC(=O)OCc1ccccc1)C(=O)O)C(=O)O [P015, (S)-2-((S)-3-(((Benzyloxy)carbonyl)amino)-3-carboxypropanamido)pentanedioic Acid] | 0%
7 | Cc1ccc(-c2cn(CC(=O)N[C@@H](CC(=O)N[C@@H](CCC(=O)O)C(=O)O)C(=O)O)nn2)cc1 [P016, (S)-2-((S)-3-Carboxy-3-(2-(4-(p-tolyl)-1H-1,2,3-triazol-1-yl)acetamido)-propanamido)pentanedioic Acid] | 12%
8 | O=C(O)CCN(CC(=O)O)NC(=O)NC(CSCc1ccccc1)C(=O)O (stereo not drawn) [P017, 3-(Benzylthio)-2-(2-(2-carboxyethyl)-2-(carboxymethyl)-hydrazinecarboxamido)propanoic Acid] | 0%
9 | CN(C(=O)N[C@@H](CCC(=O)O)C(=O)O)[C@@H](CCCCNC(=O)OCc1ccccc1)C(=O)O [P018, (9S,13S)-10-Methyl-3,11-dioxo-1-phenyl-2-oxa-4,10,12-triazapentadecane-9,13,15-tricarboxylic Acid] | 99%
10 | CN(C(=O)N[C@@H](CCCCNC(=O)OCc1ccccc1)C(=O)O)[C@@H](CCC(=O)O)C(=O)O [P019, (9S,13S)-12-Methyl-3,11-dioxo-1-phenyl-2-oxa-4,10,12-triazapentadecane-9,13,15-tricarboxylic Acid] | 97%
11 | O=C(O)CC[C@H](NC(=O)C[C@H](NC(=O)Cn1cc(CCCF)nn1)C(=O)O)C(=O)O [P020, (S)-2-((S)-3-Carboxy-3-(2-(4-(3-fluoropropyl)-1H-1,2,3-triazol-1-yl)acetamido)-propanamido)pentanedioic Acid] | 0%
12 | O=C(O)CC[C@H](NC(=O)N(CC(=O)O)NC(=O)OCc1ccccc1)C(=O)O [P021, (S)-2-(2-(Benzyloxycarbonyl)-1-(carboxymethyl)hydrazinecarboxamido) pentanedioic Acid] | 0%
13 | O=C(O)CC[C@H](NC(=O)NCC(=O)O)C(=O)O [P022, (S)-2-(3-(Carboxymethyl)ureido)pentanedioic Acid] | 77%
14 | [N-]=[N+]=NCCCC(=O)N[C@@H](CC(=O)N[C@@H](CCC(=O)O)C(=O)O)C(=O)O [P023, (S)-2-((S)-3-(4-Azidobutanamido)-3-carboxypropanamido)pentanedioic Acid] | 24%
15 | C[C@@H](C(=O)O)N(C)C(=O)N[C@@H](CCC(=O)O)C(=O)O [P024, (S)-2-(3-((S)-1-carboxyethyl)-3-methylureido)pentanedioic Acid] | 6%
16 | C[C@H](NC(=O)N[C@@H](CCC(=O)O)C(=O)O)C(=O)O [P025, (S)-2-(3-((S)-1-Carboxyethyl)ureido)pentanedioic Acid] | 92%
17 | O=C(O)CCNC(=O)N[C@@H](CCC(=O)O)C(=O)O [P026, (S)-2-(3-(2-Carboxyethyl)ureido)pentanedioic Acid] | 2%
18 | O=C(O)CC[C@H](NC(=O)OCC(=O)O)C(=O)O [P027, (S)-2-(((Carboxymethoxy)carbonyl)amino)pentanedioic Acid] | 31%
19 | O=C(O)CN(CC(=O)O)CC(=O)N[C@H](CSCc1ccccc1)C(=O)O [P028, (S)-2,2′-((2-((2-(Benzylthio)-1-carboxyethyl)amino)-2-oxoethyl)azanediyl)diacetic Acid] | 24%
20 | CN(C(=O)CCCC(=O)O)[C@@H](CCC(=O)O)C(=O)O [P029, (S)-2-(4-Carboxy-N-methylbutanamido)pentanedioic Acid] | 12%
21 | O=C(O)CCCC(=O)NC(CCC(=O)O)C(=O)O (stereo not drawn) [P030, S)-2-(4-Carboxybutanamido)pentanedioic Acid] | 2%
22 | C[C@H](NC(=O)CCCN=[N+]=[N-])C(=O)N[C@@H](CCC(=O)O)C(=O)O [P031, (S)-2-((S)-2-(4-Azidobutanamido)propanamido)pentanedioic Acid] | 19%

Row | SMILES | PSMA Blkg % (10 μM)
23 | CN(C(=O)N[C@@H](CCC(=O)O)C(=O)O)[C@@H](CCCCNC(=O)Cn1cc(CCCF)nn1)C(=O)O [P032, (S)-2-(3-((S)-1-Carboxy-5-(2-(4-(3-fluoropropyl)-1H-1,2,3-triazol-1-yl)acetamido)pentyl)-3-methylureido)pentanedioic Acid] | 50%
24 | O=C(O)CC[C@H](NC(=O)N[C@@H](CCCCNC(=O)OCc1ccccc1)C(=O)O)C(=O)O [P033, (9S,13S)-3,11-Dioxo-1-phenyl-2-oxa-4,10,12-triazapentadecane-9,13,15-tricarboxylic Acid] | 89%
25 | CN(C(=O)N[C@@H](CCC(=O)O)C(=O)O)[C@@H](CCCCNC(=O)CN=[N+]=[N-])C(=O)O [P034, (S)-2-(3-((S)-5-(2-Azidoacetamido)-1-carboxypentyl)-3-methylureido)pentanedioic Acid] | 70%
26 | CCN(C(=O)N[C@@H](CCC(=O)O)C(=O)O)[C@@H](CCCCNC(=O)OCc1ccccc1)C(=O)O [P035, (9S, 13S)-10-Ethyl-3,11-dioxo-1-phenyl-2-oxa-4,10,12-triazapentadecane-9,13,15-tricarboxylic Acid] | 0%
27 | COc1ccc(-c2cn(CC(=O)NCCCC[C@@H](C(=O)O)N(C)C(=O)N[C@@H](CCC(=O)O)C(=O)O)nn2)cc1 [P036, (S)-2-(3-((S)-1-Carboxy-5-(2-(4-(4-methoxyphenyl)-1H-1,2,3-triazol-1-yl)acetamido)-pentyl)3-methylureido)pentanedioic Acid] | 68%
28 | O=C(O)CC[C@H](Nc1nc(C(=O)O)co1)C(=O)O [P037, (S)-2-((4-Carboxyoxazol-2-yl)amino)pentanedioic Acid] | 12%
29 | O=C(O)CC[C@H](NC(=O)N(O)CCCc1ccccc1)C(=O)O [P038, (S)-2-(3-Hydroxy-3-(3-phenylpropyl)ureido)pentanedioic Acid] | 2%
30 | CC(C)(C)OC(=O)NCCCC[C@H](NC(=O)N[C@@H](CCC(=O)O)C(=O)O)C(=O)O [P039, (10S,14S)-2,2-Dimethyl-4,12-dioxo-3-oxa-5,11,13-triazahexadecane-10,14,16-tricarboxylic Acid] | 77%
31 | CC(=O)N(CCCCNC(=O)OC(C)(C)C)CC(=O)N[C@@H](CCC(=O)O)C(=O)O [P040, (S)-2-(2-(N-(4-(tert-Butoxycarbonylamino)butyl)acetamido)acetamido)pentanedioic Acid] (Ac-[Nlys](Boc)-Glu-OH) | 42%
32 | CC(C)(C)OC(=O)NCCCCN(CC(=O)N[C@@H](CCC(=O)O)C(=O)O)C(=O)NO [P042, (S)-2-(2-(1-(4-(tert-Butoxycarbonylamino)butyl)-3-hydroxyureido)acetamido) pentanedioic Acid] | 0%
33 | O=C(O)CC[C@H](NC(=O)N[C@@H](CCCCNC(=O)Cn1cc(Cn2ccnc2[N+](=O)[O-])nn1)C(=O)O)C(=O)O [P043, (S)-2-(3-((S)-1-Carboxy-5-(2-(4-2((2-nitro-1H-imidazo-1-yl)-methyl)-1H-1,2,3-triazol-1-yl)acetamido)pentyl)ureido)pentanedioic Acid] | 77%
34 | CN(C(=O)N[C@@H](CCC(=O)O)C(=O)O)[C@@H](CCCCNC(=O)Cn1cc(Cn2ccnc2[N+](=O)[O-])nn1)C(=O)O [P044, (S)-2-(3-((S)-1-Carboxy-5-(2-(4-2((2-nitro-1H-imidazo-1-yl)methyl)-1H-1,2,3-triazol-1-yl)acetamido)pentyl)-3-methylureido)pentanedioic Acid] | 62%
35 | O=C(O)CC[C@H](NC(=O)N[C@@H](CCCCNC(=O)CCCn1cc(CCCF)nn1)C(=O)O)C(=O)O [P045, (S)-2-(3-((S)-1-Carboxy-5-(4-(4-(3-fluoropropyl)-1H-1,2,3-triazol-1-yl)-butanamido)pentyl)ureido)pentanedioic Acid] | 95%
36 | CN(C(=O)N[C@@H](CCC(=O)O)C(=O)O)[C@@H](CCCCNC(=O)CCCn1cc(CCCF)nn1)C(=O)O [P046, (S)-2-(3-((S)-1-Carboxy-5-(4-(4-(3-fluoropropyl)-1H-1,2,3-triazol-1-yl)-butanamido)pentyl)-3-methylureido)pentanedioic Acid] | 80%
37 | CC(C)(C)OC(=O)NCCCCN(CC(=O)N[C@@H](CCC(=O)O)C(=O)O)C(N)=O [P047, (S)-2-(2-(1-(4-(tert-Butoxycarbonylamino)butyl)ureido)acetamido)pentanedioic Acid] | 0%
38 | CC(C)(C)OC(=O)NCCCCN(CC(=O)N[C@@H](CCC(=O)O)C(=O)O)C(=O)NC(N)=O [P048, (S)-2-(2-(1-(4-(tert-Butoxycarbonylamino)butyl)-3-carbamoylureido)acetamido) pentanedioic Acid] | 0%
39 | CC(C)(C)OC(=O)NCCCCN(CC(=O)O)CC(=O)N[C@@H](CCC(=O)O)C(=O)O [P049, (S)-2-(2-((4-(tert-Butoxycarbonylamino)butyl)(carboxymethyl)amino)acetamido) pentanedioic Acid] | 0%
